Assay results reported in article PMC7822874, “Chemoprotective antimalarials identified through quantitative high-throughput screening of Plasmodium blood and liver stage parasites” (Scientific Reports, 2021).
Like-named read-outs stand apart in the source and are kept apart here.

What was measured:
[1] = system: Plasmodium falciparum Dd2 asexual blood stage parasites; test: microbe, parasite or virus in culture; parameters: species or system Plasmodium falciparum Dd2 in human erythrocytes; single determination (one 11-point concentration-response curve); details: Plasmodium falciparum, DD2, Erythrocyte, 72 h
HepG2 = details: human, hepg2 cells, 48 h
in vitro = details: human, hepg2 cells

Row | SMILES | Log AC50 (M) (HepG2) | AC50 ([1]; read-out: AC50) [µM] | CC50 at 48 h (in vitro) [µM] | AC50 [1] [µM]
1 | CCCN1CCN(CCCNC(=O)c2ccc3c(c2)sc2nc(-c4ccc(OCC)cc4)cn23)CC1 [NCGC00113254-01] | -4.6143 | 4.22 | 24.3 | 
2 | CCOc1ccc2nc(C)cc(Nc3ccc4c(c3)OCCO4)c2c1 [MLS000575119-01] | -4.4143 | 6.68 | 38.5 | 
3 | COc1cc(Cl)c(NC2=CC(=O)C(=O)c3ccccc32)c(OC)c1 [MLS001360325-01] | -4.3643 | 1.68 | 43.2 | 
4 | CN(C)CCNC(=O)c1cc2c(s1)-c1ccc(Cl)cc1SC2 [MLS001198989-01] | -4.4643 | 13.3 | 34.3 | 
5 | CCN(CC)CCn1c(=N)n(CC(O)COc2ccccc2C)c2ccccc21 (centres unmarked) [NCGC00101835-01] | -4.5643 | 3.35 | 27.3 | 
6 | Cc1noc(C)c1Cc1ccc(C(=O)N2[C@H]3CC[C@@H]2c2cnc(-c4ccccc4)nc2C3)o1 [NCGC00458744-01] | -4.5643 | 9.44 | 27.3 | 
7 | COc1ccc2nc(C)cc(NCc3cccc(C(F)(F)F)c3)c2c1 [MLS001174340-01] | -4.5143 | 2.11 | 30.6 | 
8 | CC(C)(C)c1ccc(NC(=O)OC[C@H]2C[C@@H]3CCN2C[C@@H]3c2cc(C3CCCC3)nc(-c3ccncc3)n2)cc1 [NCGC00391636-01] | -4.3643 | 2.11 | 43.2 | 
9 | O=C(Nc1nnc(SCc2ccc(F)cc2)s1)c1ccccn1 [MLS001003501-01] | -4.9643 | 8.41 | 10.9 | 
10 | OC(CNCCc1ccccc1)COc1ccc(OCC(O)CNCCc2ccccc2)cc1 (centres unmarked) [MLS000769724-01] | -4.3643 |  | 43.2 | 
11 | O=C(N/N=C/c1ccccn1)c1ccccc1 [MLS000562399-01] | -4.3643 |  | 43.2 | 
12 | Nc1nc(N)c2c(ccc3[nH]ccc32)n1 [MLS000758537-01] | -4.9143 |  | 12.2 | 
13 | Cc1ccccc1Cn1c(CN2CCC(C(=O)NCCN(C)C)CC2)cc2ccccc21 [NCGC00137638-01] | -4.3643 |  | 43.2 | 
14 | CCOC(=O)c1ccc(N2C(=O)c3[nH]nc(-c4ccc(OC)cc4)c3C2c2cccc(O)c2)cc1 (centres unmarked) [NCGC00108527-01] | -4.3643 |  | 43.2 | 
15 | O=C(Nc1ccc(Cl)cc1)N1CCC(c2nc(-c3ccccc3Cl)no2)CC1 [MLS000529331-01] | -4.4643 |  | 34.3 | 
16 | CCCCCCc1cc2cc(-c3nnc(-c4ccc(C)cc4)o3)c(=O)oc2cc1O [NCGC00098410-01] | -4.4643 |  | 34.3 | 
17 | CCc1nnc(NC(=O)c2cc(Cl)ccn2)s1 [MLS001175292-01] | -4.3643 |  | 43.2 | 
18 | Cc1cc(C)n(-c2nc3ccccc3c(=O)n2OCC#N)n1 [MLS001215162-01] | -4.9143 |  | 12.2 | 
19 | SC(=Nc1ccncc1)NCc1ccccc1 [MLS001230114-01] | -4.5643 |  | 27.3 | 
20 | Brc1ccc2[nH]c3c(N4CCc5ccccc5C4)ncnc3c2c1 [MLS000556376-01] | -4.3643 |  | 43.2 | 
21 | Cc1ccc(NC(=O)CSc2n[nH]c(-c3ccccn3)n2)cc1 [MLS001223214-01] | -4.6143 |  | 24.3 | 
22 | CC(=O)c1cn(CCOc2ccc(F)cc2)c2ccccc12 [MLS001205469-01] | -4.3643 |  | 43.2 | 
23 | N=c1ccn(Cc2cccc(Cl)c2)cc1 [MLS000080111-01] | -4.4643 |  | 34.3 | 

The next lines start with results.

Row | Log AC50 (M) (HepG2) | SMILES | AC50 ([1]; read-out: AC50) [µM] | CC50 at 48 h (in vitro) [µM] | AC50 [1] [µM]
24 | -4.3643 | CCCCN(CC)CCCNC(=O)c1ccc2c(c1)N(Cc1ccc(C)cc1)C(=O)c1ccccc1S2 [NCGC00139764-01] | 1.88 | 43.2 | 
25 | -4.3643 | COC(=O)C1=C(C)NC(C)=C(C(=O)OCCCN2CCC(c3ccccc3)(c3ccccc3)CC2)C1c1cccc([N+](=O)[O-])c1.Cl (centres unmarked) [NCGC00163135-01] |  | 43.2 | 2.99
26 | -4.4643 | CC1=C[C@@H](CNCc2cccnc2)[C@H](C(C)C)C[C@H]1Cc1nnc(-c2ccc(N(C)C)cc2)o1 [NCGC00421481-01] | 5.31 | 34.3 | 
27 | -4.5143 | COc1cccc(-c2noc(CCCc3nc(-c4cccnn4)no3)n2)c1 [NCGC00435845-01] |  | 30.6 | 
28 | -4.3643 | O=C(N1CCCN(c2cc(-c3ccc(Cl)cc3)n[nH]2)CC1)C1(c2ccccc2)CC1 [NCGC00436184-01] |  | 43.2 | 
29 | -4.3028 | O=C(C[C@@H]1CCNC[C@@H]1Cc1cc(CC2CCCCC2)on1)NCc1ccccc1 [NCGC00400728-01] |  | 49.8 | 
30 | -4.8643 | CCc1nnc([C@@H]2CC(F)(F)CN2Cc2cccn2C)o1 [NCGC00468656-01] |  | 13.7 | 
31 | -4.5143 | CC(=O)N1CCN(c2cc(-c3noc([C@@H]4CCCN4Cc4ccc(C(F)(F)F)cc4)n3)ccn2)CC1 [NCGC00394931-01] |  | 30.6 | 
32 | -4.3643 | C[S+](=O)([O-])N1CCC(OC2CCN(C(=O)Nc3cc(F)ccc3F)CC2)CC1 [NCGC00445092-01] |  | 43.2 | 
33 | -4.6143 | COc1ccc2cc1Nc1ccc(cc1)C[C@H](NC(=O)CCc1ccccn1)C(=O)N(C)[C@@H](C(=O)NCc1ccccc1)C2 [NCGC00410291-01] |  | 24.3 | 
34 | -4.4643 | Cc1nc(N2CCC(NC(=O)c3cc4ccccc4[nH]3)CC2)cc(C(F)(F)F)n1 [NCGC00455533-01] |  | 34.3 | 
35 | -4.3028 | Fc1ccc(CN2CC[C@H](c3nc4ccc(C(F)(F)F)cc4[nH]3)C2)cc1F [NCGC00396703-01] |  | 49.8 | 
36 | -4.5143 | Cc1nc(C)c(C(=O)N2CC(Oc3ccc(-c4noc(-c5ccccc5)n4)cc3)C2)s1 [NCGC00458037-01] |  | 30.6 | 
37 | -4.4143 | CCN1C(=O)C2(CCN([S+](=O)([O-])c3cc(F)ccc3C)CC2)c2ccccc21 [NCGC00435872-01] |  | 38.5 | 
38 | -4.3643 | COc1ccc(C(=O)N2CCC(n3cc(-c4nc(-c5ccccc5)no4)nn3)C2)cc1 (centres unmarked) [NCGC00455125-01] |  | 43.2 | 
39 | -4.4643 | CCc1ccc(NC(=O)C2CCN(c3cc(C(F)(F)F)ncn3)CC2)cc1 [NCGC00455558-01] |  | 34.3 | 
40 | -4.5143 | Cc1cc(=O)n(CC(=O)Nc2cccc(C(F)(F)F)c2)c(N2CCC(C)CC2)n1 [NCGC00432189-01] |  | 30.6 | 
41 | -4.5143 | O=C(c1n[nH]c2c1CCCC2)N1CCC(n2cc(-c3nc(-c4ccccc4)no3)nn2)CC1 [NCGC00454851-01] |  | 30.6 | 
42 | -4.9143 | O=C1CCN(Cc2ccc(F)cc2F)CCCC(c2nc(-c3cnccn3)no2)CCN1 (centres unmarked) [NCGC00465975-01] |  | 12.2 | 
43 | -4.3643 | O=C(c1ccco1)N1CCCN(c2cc(-c3ccc(Br)cc3)n[nH]2)CC1 [NCGC00436196-01] |  | 43.2 | 
